According to patent US9556162B2, “Compound for the treatment of hepatitis C” (Bristol-Myers Squibb Company, priority 2013, dated 2017):

What was measured:
[1] = system: genotype 1b (Con-1) HCV replicon; experiment: HCV replicon luciferase assay; type: cell-based; details: Hepatitis C virus, Huh-7, 72 h
Protocol: The cell lines used to evaluate compounds consist of a human hepatocyte derived cell line (Huh-7) that constitutively expresses a genotype 1b (Con-1) HCV replicon or a genotype 1b (Con-1) HCV replicon with an asparagine replacing the cysteine at amino acid 316, or a genotype 2a (JFH-1) replicon, containing a Renilla luciferase reporter gene. These cells were maintained in Dulbecco's modified Eagle medium (DMEM) containing 10% FBS, 100 U/mL penicillin/streptomycin and 1.0 mg/mL G418.
To evaluate compound efficacy, titrated compounds were transferred to sterile 384-well tissue culture treated plates, and the plates were seeded with HCV replicon cells (50 μL at a density of 2.4×10^3 cells/well) in DMEM containing 4% FBS (final DMSO concentration at 0.5%). After 3 days incubation at 37 C, cells were analyzed for Renilla Luciferase activity using the EnduRen substrate (Promega cat #E6485) according to the manufacturer's directions. […] The plates were incubated for at least 1 h at 37° C. then read on a Viewlux Imager (PerkinElmer) using a luminescence program. […]
To assess cytotoxicity of compounds, Cell Titer-Blue (Promega) was added to the EnduRen-containing plates and incubated for at least 4 h at 37° C. The fluorescence signal from each well was read using a Viewlux Imager. All CC50 values were calculated using the four-parameter logistic formula.

[2] = biological target: T1, NS5B enzyme, HCV genotype 1b (Con1) (Hepatitis C virus genotype 1b, UniProt Q9WMX2); experiment: HCV NS5B RdRp enzyme assay; type: biochemical; details: 1b NS5B enzyme, 24 h preincubation, [33P]-GTP incorporation
T1 construct: Each untagged protein was expressed with an 18 amino acid C-terminal truncation to enhance the solubility; made in house; host or cells: E. coli BL21(DE3), pET21a vector
T1 sequence (Q9WMX2 2420-2992): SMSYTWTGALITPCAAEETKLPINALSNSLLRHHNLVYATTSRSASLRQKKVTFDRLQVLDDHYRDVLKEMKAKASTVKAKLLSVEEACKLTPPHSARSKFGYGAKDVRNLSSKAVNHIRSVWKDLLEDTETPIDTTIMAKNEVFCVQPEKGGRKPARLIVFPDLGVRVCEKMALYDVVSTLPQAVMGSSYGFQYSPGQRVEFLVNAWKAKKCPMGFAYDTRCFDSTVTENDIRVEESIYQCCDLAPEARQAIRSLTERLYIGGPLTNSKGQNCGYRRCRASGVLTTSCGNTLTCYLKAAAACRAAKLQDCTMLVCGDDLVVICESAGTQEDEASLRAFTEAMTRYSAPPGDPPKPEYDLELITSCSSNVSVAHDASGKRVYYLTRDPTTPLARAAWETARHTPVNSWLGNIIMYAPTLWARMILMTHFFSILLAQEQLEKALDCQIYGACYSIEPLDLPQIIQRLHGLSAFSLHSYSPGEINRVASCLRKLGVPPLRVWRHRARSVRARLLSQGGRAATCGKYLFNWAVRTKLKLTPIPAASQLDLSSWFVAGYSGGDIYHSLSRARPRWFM
Protocol: The cDNA encoding NS5B proteins of HCV genotype 1b (Con1), a genotype 1b variant with amino acid 316 mutated from cysteine to asparagine, and genotype 2a (JFH-1), were cloned into the pET21a expression vector. Each untagged protein was expressed with an 18 amino acid C-terminal truncation to enhance the solubility. The E. coli competent cell line BL21(DE3) was used for expression of the protein. Cultures were grown at 37° C. for ˜4 hours until the cultures reached an optical density of 2.0 at 600 nm. The cultures were cooled to 20° C. and induced with 1 mM IPTG. Fresh ampicillin was added to a final concentration of 50 μg/mL and the cells were grown overnight at 20° C.
Cell pellets (3 L) were lysed for purification to yield 15-24 mgs of purified NS5B. […]
HCV NS5B RdRp enzyme assay. […] The newly synthesized RNA product was precipitated by 10% TCA and quantified on the Packard Top Count NXT. IC50 values for compounds were determined using seven different [I]. IC50 values were calculated from the inhibition using the four-parameter logistic formula y=A+((B−A)/(1+((C/x)^D))), where A and B denote minimal and maximal % inhibition, respectively, C is the IC50, D is hill slope and x represents compound concentration.

[3] = system: HCV; details: cited from earlier work

| Structure (SMILES) | EC50 [1] | IC50 [2] | toxicity during extended dosing of the combination regimens ([3]; patients, combined with interferon and ribavirin) | HCV RNA levels in patients ([3]; single agent: transient decrease then rebound during dosing) |
| --- | --- | --- | --- | --- |
| CC[C@@H](C)c1cc2oc(-c3ccc(F)cc3)c(C(=O)NC)c2cc1-c1cccc(C(=O)NC(C)(C)c2ncon2)c1 (single isomer, unassigned) [Enantiomer 2] | 5.5 nM | 2.3 nM |  |  |
| CNC(=O)c1c(-c2ccc(F)cc2)oc2cc(N(CCO)S(C)(=O)=O)c(C3CC3)cc12 [HCV-796] |  |  | hepatic toxicity | reduce HCV RNA levels |
